According to patent US20100311805A1, “COMBINATION OF HISTONE DEACETYLASE INHIBITORS AND RADIATION” (NOVARTIS AG, priority 2005, published 2010):

How the values were obtained:
[1] = mouse, in vivo
Procedure: LBH589 enhances tumor growth delay in vivo. H460 cells were injected into the hind limb of mice. After tumor formation the mice were treated with two oral doses of 40 mg LBH589 and/or five 3 Gy fractions over seven days. […] IR alone delayed growth by approximately 4 days (P<0.001).

[2] = test system: H460 cells; test: Tumor growth delay in H460 xenograft tumor model; assay type: in vivo, nude mice; settings: 10-fold increase in tumor volume as reference
Procedure: Tumor Volume Assessment. LLC, H450 and H23 cells are implanted into C57BL6 and nude mice, respectively. 106 viable cells suspended in 0.1 mL of cell medium are injected s.c. into the hind-limb. Each group of mice are comprised of 12 mice which are stratified into two groups to create approximately the same mean tumor volume. The mean volume of the tumors in mice at the time of treatment (day 0) with radiation, control, irradiated, LBH589 alone and LBH589 given prior to radiation are approximately 200 mm^3. Irradiated mice are immobilized with 140 μL of ketamine, and the entire body are shielded with lead, except for the tumor-bearing hind limb. A total dose of 21 Gy are administered in seven fractionated doses on days 0-4, 7 and 8. The LBH589 group receive of LBH589 administered p.o. via esophageal injection on days-1 and 6.
Tumor volumes were measured on days 0, 2, 4, 7, 9, 11, 14, 16, 18, 20 and 22 using skin calipers. Tumor volumes were calculated from a formula (a×b×c/2) that are derived from the formula for an ellipsoid (πd3/6). Data were calculated as the percentage of original (day 0) tumor volume and graphed as fractional tumor volume±SD for each treatment group. […]
H460 cells were injected in the hind limb of nude mice and allowed to grow for one week. […] B, shown is the mean tumor growth delay and standard error calculated using a 10-fold increase in tumor volume as reference.

[3] = test system: H460 cell lines; test: Clonogenic analysis of H460 cell lines with LBH589 and 0-6 Gy; assay type: cell-based, human
Procedure: Results. LBH589 sensitizes NSCLC to the cytotoxic effects of ionizing radiation. Clonogenic analysis of H460 cell lines was performed using LBH589 and 0-6 Gy. […] Cells were suspended, counted with a hemocytometer, and plated at specific cell densities. Once attached, cells were treated with LBH589 for 1 hour or 18 hours followed by 0, 2, 4, or 6 Gy. Media was changed after IR and the cells were allowed to proliferate for 10 days. Shown is the average and standard error of the relative fractions of colonies (n=3).

[4] = test system: γ-H2AX foci; test: γ-H2AX foci immunostaining, H23; assay type: cell-based, human
Procedure: LBH589 prolongs the duration of radiation induced γ-H2AX foci. Immunostaining was performed to study γ-H2AX foci present at DNA double strand breaks. […] The red staining of γ-H2AX foci and blue staining of the DAPI counterstain are shown. 3 Gy induced γ-H2AX foci as early as 30 minutes following treatment. These foci disappeared by 6 hrs in cell lines treated with IR alone. […] In comparison, LBH589 added 18 hours prior to IR prolonged the duration of γ-H2AX foci for up to 24 hours after IR (42 hours after LBH589 administration). […] LBH589 prolongs duration of γ-H2AX foci in irradiated lung cancer cells. H23 cell line received the indicated treatment of 25 nM LBH589 and/or 3 Gy. Anti-γ-H2AX antibody was used for immunostaining with rhodamine red labeled secondary antibody (red). Cells were counterstained with DAPI (blue). Shown are representative photographs of the H23 cells line (A) at the indicated time points after IR. Arrows point to apoptotic cells. B, shown is the mean and standard error of cells with γ-H2AX nuclear foci. *P<0.05 compared to control.

[5] = test system: H23 cell line; test: Nuclear morphology (pyknotic nuclei) by DAPI staining, H23; assay type: cell-based, human
Procedure: (§1) To confirm the ability of LBH589 to sensitize human lung cancer cell lines to radiation induced apoptosis, nuclear morphology studies were performed. […] DAPI staining of cells treated with LBH589 and IR. Cells were subcultured onto slides and treated with 25 nM LBH589 for 18 hours followed by 3 Gy. Eighteen (18) hours later cells were fixed and stained with DAPI. Shown is the percentage of pyknotic nuclei and standard error (n=3) determined by manual counts from microscopy. *P<0.05 compared to control.

[6] = test system: H23 cell line; test: Annexin V-FITC/PI flow cytometry analysis of apoptosis, H23; assay type: cell-based, human
Procedure: (§2) LBH589 enhances radiation induced apoptosis. To study the effect of HDAC inhibition by LBH589 on apoptosis three in vitro experiments were performed. FIG. 2 show results from Annexin V-FITC/PI flow cytometry analysis of apoptosis. H23 and H460 cells lines were treated with 25 nM LBH589 for 18 hrs then irradiated with 3 Gy. Twenty (20) hours later, cells were harvested, stained with Annexin-FITC and PI, and analyzed by flow cytometry. Shown is the number of apoptotic cells and standard error (n=3) for each treatment condition. *P<0.05 compared to control.

[7] = test system: cleaved caspase3; test: Western immunoblot for cleaved caspase3, H460 whole cell lysates; assay type: cell-based, human
Procedure: (§3) Western Immunoblots. LLC, H450 and H23 cells are serum starved overnight in DMEM/F-12 media (Gibco). Cells are then treated with 10 μM of Compound III for 1 hour and/or irradiated with 3 Gy. Cells are washed twice with PBS and lysis buffer ([…] Tris, 150 mM NaCl, 1 mM EDTA, 1% Triton X-100, 2.5 mM Na PP, 1 mM phenylmethylsulfonyl fluoride, and 1 μg/mL leupeptin) are added. Protein concentration are quantified by the Bio-Rad method. Twenty (20) μg of total protein are loaded into each well and separated by 7% or 10% SDS-PAGE gel, depending on the size of the target protein being investigated. The proteins are transferred onto nitrocellulose membranes (Hybond ECL; Amersham, Arlington Heights, Ill.) and probed with primary antibodies to caspase3, cleaved caspase3, phospho-Akt, Akt, PDGFR α and β (Cell Signaling; 1:1000). Blots are washed and probed with goat anti-rabbit secondary antibody (Sigma; 1:1000). Cleavage of caspase 3 was analyzed to verify the role of apoptosis in cells treated with LBH589 and radiation. Western blot analysis was performed on H23 and H460 whole cell lysates. […] LBH589 induced caspase3 cleavage. H23 and H460 cells were treated with 25 nM LBH589 for 18 hours then irradiated with 3 Gy. Six hours later, protein was extracted, quantified, run in a 12% SDS-polyacrylamide gel, transferred, and probed with antibodies to cleaved caspase3 and actin. […]

[8] = test system: H460 cell line; test: Nuclear morphology (pyknotic nuclei) by DAPI staining, H460; assay type: cell-based, human
Procedure: as §1

[9] = test system: H460 cell line; test: Annexin V-FITC/PI flow cytometry analysis of apoptosis, H460; assay type: cell-based, human
Procedure: as §2

[10] = test system: cleaved caspase3; test: Western immunoblot for cleaved caspase3, H23 whole cell lysates; assay type: cell-based, human
Procedure: as §3

[11] = test system: HDAC4; test: HDAC4 immunostaining (compartmentalization), H460; assay type: cell-based, human
Procedure: (§4) Immunostaining of HDAC4 was performed on H23 and H460 cell lines to identify the effect of LBH589 on HDAC4 compartmentalization. […] When H460 cells were treated with 3 Gy, HDAC4 localized to the nucleus at 2 hours and minimal HDAC4 was present in the cytoplasm.

[12] = test system: HDAC4; test: HDAC4 immunostaining (compartmentalization), H23; assay type: cell-based, human; settings: LBH589 added prior to IR
Procedure: as §4

[13] = test system: γ-H2AX foci; test: γ-H2AX foci immunostaining, H460; assay type: cell-based, human
[14] = 25 nM LBH589 18 hours prior to 3 Gy, 18 hours later
[15] = 25 nM LBH589 18 hours prior to IR 3 Gy, 6 hours later

Structure (SMILES): Cc1[nH]c2ccccc2c1CCNCc1ccc(/C=C/C(=O)NO)cc1 [LBH589, N-hydroxy-3-[4-[[[2-(2-methyl-1H-indol-3-yl)-ethyl]-amino]methyl]phenyl]-2E-2-propenamide]
- signs of toxicity as monitored by weight loss and mobility [1]: minimal signs of toxicity
- tumor growth delay ([2]; LBH589 alone, two oral doses of 40 mg over seven days): two
- tumor growth delay ([2]; combined: two oral doses of 40 mg LBH589 and five 3 Gy fractions over seven days): approximately 20 days
- colony survival compared to untreated cells ([3]; LBH589 1 hour and 18 hours prior to IR (0-6 Gy), 10 days proliferation): synergistic decrease in colony survival
- plating efficiency ([3]; LBH589 alone for 1 hour, compared to the control): no reduced plating efficiency
- plating efficiency ([3]; LBH589 alone for 18 hours): significantly reduced plating efficiency
- cells with γ-H2AX nuclear foci at 24 hours ([4]; 25 nM LBH589 alone): < 5%
- residual γ-H2AX foci at 24 hours ([4]; 25 nM LBH589 prior to IR 3 Gy): 60%
- duration of γ-H2AX foci after IR ([4]; LBH589 added 18 hours prior to IR 3 Gy): up to 24 hours
- γ-H2AX foci ([4]; LBH589 alone for 20 hours): modest increase in γ-H2AX foci
- percentage of pyknotic nuclei [5, 14]: over 10%
- apoptotic nuclei ([5]; LBH589 alone): 4%
- number of apoptotic cells ([6]; 25 nM LBH589 18 hrs prior to 3 Gy, 20 hours later, control 7%): 30%
- number of apoptotic cells ([6]; LBH589 alone 25 nM): only a minimal increase
- caspase3 cleavage [7, 15]: increased levels of caspase3 cleavage
- caspase3 cleavage ([7]; treatment with 25 nM LBH589): increase in caspase3 cleavage was evident
- percentage of pyknotic nuclei [8, 14]: over 10%
- apoptotic nuclei ([8]; LBH589 alone): 2%
- number of apoptotic cells ([9]; 25 nM LBH589 18 hrs prior to 3 Gy, 20 hours later, control 6%): 25%
- number of apoptotic cells ([9]; LBH589 alone 25 nM): only a minimal increase
- caspase3 cleavage, increase with LBH589 prior to IR [10, 15]: not as prominent
- caspase3 cleavage ([10]; treatment with 25 nM LBH589): increase in caspase3 cleavage was evident
- HDAC4 nuclear localization ([11]; LBH589 added prior to IR 3 Gy): markedly limited HDAC4 nuclear localization
- HDAC4 staining / localization ([11]; LBH589 alone): background HDAC4 staining in the cytoplasm and nucleus
- HDAC4 nuclear localization [12]: A similar effect was seen
- cells with γ-H2AX nuclear foci at 24 hours ([13]; 25 nM LBH589 alone): < 5%
- residual γ-H2AX foci at 24 hours ([13]; 25 nM LBH589 prior to IR 3 Gy): 60%
